Here are results for 2 molecules from article PMC9697349, “Mouse Pharmacokinetics and In Vitro Metabolism of SH-11037 and SH-11008, Synthetic Homoisoflavonoids for Retinal Neovascularization” (Pharmaceutics, 2022).

Series [1] is classed as in vitro ADME. Particulars: BNPP 1 mM, 2 h preincubation; SH-11037 1 µM, mouse eye homogenate, 1 min. On the procedure:
(§1) Chemical inhibition assay was conducted in mouse, dog, and human plasma and mouse eye homogenate to identify the enzyme(s) involved in the hydrolysis of SH-11037. BW284c51 [16], DTNB [17], EPZ [18], and BNPP [19, 20] were used as selective inhibitors of acetylcholinesterase (AChE), paraoxonase 1 (PON1), butyrylcholinesterase (BchE), and carboxylesterase (CES), respectively. Mouse eyes (male ICR mouse, 8 weeks old) taken immediately after CO2 asphyxiation were homogenized by an electric tissue homogenizer (Tissue Master-125, Omni International, Kennesaw, GA, USA) in an equal amount of 0.1 M potassium phosphate buffer (pH 7.4) on ice. The resulting homogenate was then centrifuged at 3000× g for 20 min. The supernatant was stored at −80 °C until the experiment. DMSO stock solutions of the inhibitors (0.4, 4 and 40 mM) were mixed with plasma diluted 3-fold with 0.1 M phosphate buffer (pH 7.4) to a final volume of 160 μL and final inhibitor concentrations of 0.01, 0.1, and 1 mM. The supernatant of mouse eye homogenate was treated similarly with only BNPP as the inhibitor and a single inhibitor concentration of 1 mM. The resulting pre-incubation solutions were then incubated for 2 h at 37 °C in a shaking water bath. SH-11037 (40 μM) in 50 vol% aqueous CH3CN was mixed with the pre-incubation solutions to a final volume of 160 μL and a final concentration of 1 μM. The resulting solutions were then incubated at 37 °C in a shaking water bath. The incubations were terminated at selected times by adding 160 µL of ice-cold CH3CN containing glipizide (500 ng/mL) as the IS. The resulting mixture was vortexed, sonicated, and centrifuged at 3000× g for 20 min. Aliquots of the supernatant were subjected to LC-MS/MS analysis described below in Section 2.6.2.
(§2) The LC-MS/MS system consisted of Agilent 1290 Infinity HPLC system and Agilent 6530 Accurate-Mass Quadrupole Time-of-Flight (Q-TOF) mass spectrometer equipped with dual AJS ESI ion source (Agilent Technologies Korea, Seoul, Korea). Chromatographic separation was performed on an Agilent Eclipse Plus C18 column (2.1 × 100 mm, 3.5 μm) with a Phenomenex Security Guard C18 guard column (4 × 20 mm) maintained at 40 °C. The mobile phase consisted of 0.1% formic acid in deionized water (A) and 0.1% formic acid in CH3CN (B): 0~2 min 5% B, 2~7 min to 95% B, and 7~10 min 95% B. Total run time including a 5 min equilibration time was 15 min. The flow rate was 0.4 mL/min. The injection volume was 5 µL. The mass spectrometer was operated in a positive Auto MS/MS scan mode with a full scan mass range of m/z 100–1000, fragmentor voltage 150 V, and CE 30 eV, selecting the two most intense precursor ions for collision-induced dissociation. Putative metabolites were identified using Agilent Mass Hunter Metabolite ID software (ver.B.04.00) followed by manual interpretation of the spectral data. Chromatograms and mass spectra were extracted using Agilent Mass Hunter Qualitative Analysis software (ver. B.05.00).

Series [2] has as its system hydrolysis of SH-11037 in mouse plasma. It counts as in vitro ADME. Particulars: inhibitor 1 mM; SH-11037 1 µM, mouse plasma, 1 min, 37 °C. On the procedure:
as §1, §2

On the set-up of series [3]: method as in PMID 30713251. Particulars: cited from earlier work.

For the molecule `O=[N+]([O-])c1ccc(OP(=O)(O)Oc2ccc([N+](=O)[O-])cc2)cc1` [BNPP, bis(4-nitrophenyl)phosphate, reference compound], in series [1], the “effect of inhibitor on SH-11037 hydrolysis” value was “inhibited the hydrolysis nearly completely”. The “SH-11008 Formation (%) in presence of inhibitor” value in series [2] was “completely inhibited”.

In the case of `COc1ccc(CC2COc3cc(O)c(OC)c(O)c3C2=O)cc1O` (stereo not shown) [cremastranone, Cremastranone], in series [3], the oral absorption result is “poor” and the “systemic clearance (CL)” value is given as “high”.
